Reference: ChEMBL document CHEMBL5724914, “Linking interpersonal differences in gut microbiota composition and drug biotransformation activity” (2024)

Assays:
[1] = (§1) The drug is tested on Z-009 corresponding to pig gut metagenome with ENA study accession number: PRJEB37062 and ENA sample accession number: ERS12561809 for biotransformation under anaerobic condition. The drug concentrations were measured over 9 timepoints collected between 0 and 24 hours of incubation by liquid-chromatography-coupled mass spectrometry (LC–MS); details: 2 µM
[2] = as §1, with “Z-008” for “Z-009”, “to” for “to pig gut”, “ERS12561808” for “ERS12561809”; details: 2 µM
[3] = as §1, with “Z-006” for “Z-009”, “mouse” for “pig”, “ERS12561806” for “ERS12561809”; details: 2 µM
[4] = as §1, with “Z-005” for “Z-009”, “to” for “to pig gut”, “ERS12561805” for “ERS12561809”; details: 2 µM
[5] = as §1, with “Z-002” for “Z-009”, “rabbit” for “pig”, “ERS12561802” for “ERS12561809”; details: 2 µM
[6] = as §1, with “WLS-370” for “Z-009”, “human” for “pig”, “ERS12561793” for “ERS12561809”; details: 2 µM
[7] = as §1, with “WLS-090” for “Z-009”, “human” for “pig”, “ERS12561753” for “ERS12561809”; details: 2 µM
[8] = as §1, with “WLS-073” for “Z-009”, “human” for “pig”, “ERS12561749” for “ERS12561809”; details: 2 µM
[9] = as §1, with “WLS-052” for “Z-009”, “human” for “pig”, “ERS12561747” for “ERS12561809”; details: 2 µM
[10] = as §1, with “WLS-039” for “Z-009”, “human” for “pig”, “ERS12561746” for “ERS12561809”; details: 2 µM
[11] = as §1, with “WLS-027” for “Z-009”, “human” for “pig”, “ERS12561744” for “ERS12561809”; details: 2 µM
[12] = as §1, with “WLS-007” for “Z-009”, “human” for “pig”, “ERS12561742” for “ERS12561809”; details: 2 µM
[13] = human gut metagenome, 24 h, 2 µM
[14] = human gut metagenome, 24 h, 2 µM; remark: listed apart in the source
[15] = human gut metagenome, 24 h, 2 µM; remark: listed apart in the source
[16] = human gut metagenome, 24 h, 2 µM; remark: listed apart in the source
[17] = human gut metagenome, 24 h, 2 µM; remark: listed apart in the source
[18] = human gut metagenome, 24 h, 2 µM; remark: listed apart in the source
[19] = human gut metagenome, 24 h, 2 µM; remark: listed apart in the source
[20] = human gut metagenome, 24 h, 2 µM; remark: listed apart in the source
Also: call rule not given here.

Row | SMILES | Bacterial Biotransformation [1] | Bacterial Biotransformation [2] | Bacterial Biotransformation [3] | Bacterial Biotransformation [4] | Bacterial Biotransformation [5] | Bacterial Biotransformation [6] | Bacterial Biotransformation [7] | Bacterial Biotransformation [8] | Bacterial Biotransformation [9] | Bacterial Biotransformation [10] | Bacterial Biotransformation [11] | Bacterial Biotransformation [12] | Bacterial Biotransformation [13] | Bacterial Biotransformation [14] | Bacterial Biotransformation [15] | Bacterial Biotransformation [16] | Bacterial Biotransformation [17] | Bacterial Biotransformation [18] | Bacterial Biotransformation [19] | Bacterial Biotransformation [20]
1 | CCc1cccc2c3c([nH]c12)C(CC)(CC(=O)O)OCC3 (stereo not given) [ETODOLAC] | Compound NOT metabolized | Compound NOT metabolized | Compound NOT metabolized | Compound NOT metabolized | Compound NOT metabolized | Compound metabolized | Compound metabolized | Compound NOT metabolized | Compound metabolized | Compound metabolized | Compound metabolized | Compound metabolized | Compound NOT metabolized | Compound metabolized | Compound NOT metabolized | Compound NOT metabolized | Compound metabolized | Compound metabolized | Compound NOT metabolized | Compound NOT metabolized
2 | CC(C)(C)NC(=O)[C@H]1CC[C@H]2[C@@H]3CC[C@H]4NC(=O)C=C[C@]4(C)[C@H]3CC[C@]12C [FINASTERIDE] | Compound metabolized | Compound NOT metabolized | Compound metabolized | Compound metabolized | Compound metabolized | Compound metabolized | Compound metabolized | Compound metabolized | Compound metabolized | Compound metabolized | Compound metabolized | Compound NOT metabolized | Compound metabolized | Compound metabolized | Compound NOT metabolized | Compound NOT metabolized | Compound metabolized | Compound metabolized | Compound metabolized | Compound metabolized
3 | CC(CCc1ccccc1)NCC(O)c1ccc(O)c(C(N)=O)c1 (stereo not given) [LABETALOL] | Compound NOT metabolized | Compound NOT metabolized | Compound NOT metabolized | Compound NOT metabolized | Compound NOT metabolized | Compound NOT metabolized | Compound metabolized | Compound NOT metabolized | Compound NOT metabolized | Compound NOT metabolized | Compound NOT metabolized | Compound NOT metabolized | Compound NOT metabolized | Compound metabolized | Compound NOT metabolized | Compound NOT metabolized | Compound metabolized | Compound NOT metabolized | Compound NOT metabolized | Compound NOT metabolized
4 | Nc1nnc(-c2cccc(Cl)c2Cl)c(N)n1 [LAMOTRIGINE] | Compound NOT metabolized | Compound NOT metabolized | Compound NOT metabolized | Compound NOT metabolized | Compound NOT metabolized | Compound NOT metabolized | Compound metabolized | Compound NOT metabolized | Compound NOT metabolized | Compound NOT metabolized | Compound NOT metabolized | Compound NOT metabolized | Compound NOT metabolized | Compound NOT metabolized | Compound metabolized | Compound NOT metabolized | Compound metabolized | Compound NOT metabolized | Compound NOT metabolized | Compound NOT metabolized

Next, values leading:

Row | Bacterial Biotransformation [1] | Bacterial Biotransformation [2] | Bacterial Biotransformation [3] | Bacterial Biotransformation [4] | Bacterial Biotransformation [5] | Bacterial Biotransformation [6] | Bacterial Biotransformation [7] | Bacterial Biotransformation [8] | Bacterial Biotransformation [9] | Bacterial Biotransformation [10] | Bacterial Biotransformation [11] | Bacterial Biotransformation [12] | Bacterial Biotransformation [13] | Bacterial Biotransformation [14] | Bacterial Biotransformation [15] | Bacterial Biotransformation [16] | Bacterial Biotransformation [17] | Bacterial Biotransformation [18] | Bacterial Biotransformation [19] | Bacterial Biotransformation [20] | SMILES
5 | Compound NOT metabolized | Compound NOT metabolized | Compound NOT metabolized | Compound NOT metabolized | Compound NOT metabolized | Compound NOT metabolized | Compound metabolized | Compound NOT metabolized | Compound NOT metabolized | Compound NOT metabolized | Compound NOT metabolized | Compound NOT metabolized | Compound NOT metabolized | Compound NOT metabolized | Compound NOT metabolized | Compound NOT metabolized | Compound NOT metabolized | Compound NOT metabolized | Compound NOT metabolized | Compound NOT metabolized | CCOc1ccc2nc(S(N)(=O)=O)sc2c1 [ETHOXZOLAMIDE]
6 | Compound metabolized | Compound metabolized | Compound metabolized | Compound metabolized | Compound metabolized | Compound metabolized | Compound metabolized | Compound metabolized | Compound metabolized | Compound metabolized | Compound metabolized | Compound metabolized | Compound metabolized | Compound metabolized | Compound NOT metabolized | Compound metabolized | Compound metabolized | Compound metabolized | Compound metabolized | Compound NOT metabolized | CC(=O)OCC(CCn1cnc2cnc(N)nc21)COC(C)=O [FAMCICLOVIR]
7 | Compound NOT metabolized | Compound NOT metabolized | Compound NOT metabolized | Compound NOT metabolized | Compound NOT metabolized | Compound NOT metabolized | Compound NOT metabolized | Compound NOT metabolized | Compound NOT metabolized | Compound NOT metabolized | Compound NOT metabolized | Compound NOT metabolized | Compound NOT metabolized | Compound NOT metabolized | Compound NOT metabolized | Compound NOT metabolized | Compound NOT metabolized | Compound NOT metabolized | Compound NOT metabolized | Compound NOT metabolized | CC1Cc2ccccc2N1NC(=O)c1ccc(Cl)c(S(N)(=O)=O)c1 (stereo not given) [INDAPAMIDE]
8 | Compound NOT metabolized | Compound NOT metabolized | Compound NOT metabolized | Compound NOT metabolized | Compound NOT metabolized | Compound metabolized | Compound metabolized | Compound metabolized | Compound metabolized | Compound metabolized | Compound metabolized | Compound metabolized | Compound metabolized | Compound metabolized | Compound NOT metabolized | Compound metabolized | Compound metabolized | Compound metabolized | Compound NOT metabolized | Compound NOT metabolized | COc1ccc2c(c1)c(CC(=O)O)c(C)n2C(=O)c1ccc(Cl)cc1 [INDOMETHACIN]
